Measurements reported in patent US20030105138A1, “Method of treatment for decreasing mortality resulting from congestive heart failure” (Boehringer Mannheim Pharmaceuticals Corporation- SmithKline …, priority 1995, published 2003).

Assays:
patients with CHF [1] = conditions: treatment of CHF; cited from earlier work
patients with CHF [2] = experiment: US Carvedilol Heart Failure Trials: mortality studies in CHF patients (multicenter, double-blind, placebo-controlled, intention-to-treat); format: in vivo, humans; parameters: All Cause Mortality / Risk Reduction, all-cause mortality / Mortality / Risk Reduction, mortality: concentration or dose not given beside the values; conditions: for Risk Reduction, mortality / Risk Reduction, all-cause mortality: versus placebo
Excerpt: To determine if β-adrenergic blockade might inhibit the deleterious effects of the sympathetic nervous system on survival in heart failure (CHF), 1052 patients with CHF were prospectively enrolled into a multicenter trial program, in which patients were randomly assigned (double-blind) to 6-12 months' treatment with placebo (PBO) or carvedilol (CRV),. After a common screening period, patients with class II-IV CHF (see next paragraph for the definitions of the classification of CHF) and an ejection fraction ≦0.35 were assigned to one of four protocols based on performance on a 6-minute walk test. PBO or CRV was added to existing therapy with digoxin, diuretics and an ACE inhibitor. All-cause mortality was monitored by a prospectively constituted Data and Safety Monitoring Board (DSMB). After 25 months of enrollment, the DSMB recommended termination of the program because of a favorable effect of CRV on survival. By intention-to-treat, mortality was 8.2% in the PBO group but only 2.9% in the CRV group (P=0.0001, Cochran-Mantel-Haensel analysis). This represented a reduction in risk of death by CRV of 67% (95% CI: 42% to 81%). The treatment effect was similar in patients with class II and class III-IV symptoms. Mortality was reduced in class II patients from 5.9% to 1.9%, a 68% reduction (95% CI: 20% to 97%) [P=0.015,], and in class III-IV patients from 11.0% to 4.2%, a 67% reduction (95% CI: 30% to 84%), [P=0.004, log-rank]. Importantly, the effect of CRV was similar in ischemic heart disease (risk reduced by 67%, P=0.003) and in non-ischemic dilated cardiomyopathy (risk reduced by 67%, P=0.014). […] The treatment effect is seen across a broad range of severity and etiology of disease.
Patients on background therapy with diuretics, ACE inhibitors and/or digoxin were stratified on the basis of baseline submaximal exercise performance, into one of four trials: study 220, a dose response study in moderate (NYHA II-IV) CHF with exercise testing as a primary endpoint study 221, a dose titration study in moderate (NYHA II-IV) CHF with exercise testing as a primary endpoint study 239, a dose titration study in severe (NYHA III-IV) CHF with quality of life as a primary endpoint study 240, a dose titration study in mild (NYHA II-III) CHF with progression of CHF as a primary endpoint Sixty-four centers in the U.S. participated in the trial program. All sites conducted protocols 239 and 240, while 33 performed protocol 220 and 31 performed protocol 221.
Although each trial had its own individual objectives, the overall program objective defined prospectively was evaluation of all-cause mortality. Based upon a projected enrollment of 1100 patients, the program had 90% power to detect a 50% reduction in mortality (two-sided) between carvedilol and placebo, assuming a mortality rate in the placebo group of 12% over the duration of the trials (α=0.05).
Randomization was preceded by a screening and challenge period common to the four protocols The purpose of the screening period was to qualify patients for study entry, obtain reproducible baseline measurements, and stratify patients into the appropriate trial based on submaximal exercise testing. During the challenge period, patients received low-dose open-label carvedilol (6.25 mg b.i.d.) for two weeks. […] Patients tolerating low-dose carvedilol were then randomized to blinded medication (carvedilol or placebo) with the dose titrated over several weeks in the range of 6.25 to 50 mg b.i.d. (or equivalent level of placebo). The maintenance phase of each study ranged from six to 12 months, after which patients had the option of receiving open-label carvedilol in an extension study.
The analysis presented below corresponds to the data set on which the DSMB made the recommendation to terminate the trials. Included in this intent-to-treat analysis are all patients enrolled in the U.S. trials as of Jan. 20, 1995; 624 receiving carvedilol and 356 placebo.

[3] = Class III-IV CHF, listed as CRV

For `CC(C)NCC(O)COc1ccc(COCCOC(C)C)cc1` (stereo not shown) [bisoprolol], the “Difference in mortality between drug-treated patients and placebo-treated patients” value (patients with CHF [1]) is given as “no difference in mortality”.
For `COc1ccccc1OCCNCC(O)COc1cccc2[nH]c3ccccc3c12` (stereo not shown) [Carvedilol], the Mortality (patients with CHF [2]; Class II CHF) was “(1.9%)”, the “Mortality (deaths/patients)” value (patients with CHF [2]; Class II CHF) was 7/361 and the “Risk Reduction, mortality” value (patients with CHF [2]; Class II CHF) was 68%. The “Risk Reduction, mortality” value (patients with CHF [2]; Class II CHF, listed as CRV) was 68%, the Mortality (patients with CHF [2]; Class II CHF, listed as CRV) was 1.9% and the Mortality (patients with CHF [2]; Class III-IV CHF) was “(4.2%)”. For the same molecule, the “Mortality (deaths/patients)” value (patients with CHF [2]; Class III-IV CHF) was 11/263, the “Risk Reduction, mortality” value (patients with CHF [2]; Class III-IV CHF) was 66% and the “Risk Reduction, mortality” value (patients with CHF [2]; [3]) was 67%. For the same molecule, the Mortality (patients with CHF [2]; [3]) was 4.2%, the Mortality (patients with CHF [2]; Ischemic Etiology) was “(3.2%)” and the “Mortality (deaths/patients)” value (patients with CHF [2]; Ischemic Etiology) was 10/311. The “Risk Reduction, mortality” value (patients with CHF [2]; Ischemic Etiology) was 67%, the “Risk Reduction, mortality” value (patients with CHF [2]; Ischemic Etiology, listed as CRV) was 67% and the Mortality (patients with CHF [2]; Non-Ischemic Etiology) was “(2.5%)”. The “Mortality (deaths/patients)” value (patients with CHF [2]; Non-Ischemic Etiology) was 8/313, the “Risk Reduction, mortality” value (patients with CHF [2]; Non-Ischemic Etiology) was 67% and the “Risk Reduction, mortality” value (patients with CHF [2]; Non-Ischemic Etiology, listed as CRV) was 67%. For the same molecule, the “All Cause Mortality” value (patients with CHF [2]; all patients, intent-to-treat) was “(2.9%)”, the “All Cause Mortality (deaths/patients)” value (patients with CHF [2]; all patients, intent-to-treat, added to digoxin, diuretics and ACE inhibitor, 6.25 to 50 mg b.i.d.) was 18/624 and the “All Cause Mortality” value (patients with CHF [2]; all patients, intent-to-treat, listed as CRV) was 2.9%. For the same molecule, the “Risk Reduction, all-cause mortality” value (patients with CHF [2]; all patients) was 67% and the “Risk Reduction, all-cause mortality” value (patients with CHF [2]; all patients, listed as CRV) was 67%.
For `COCCc1ccc(OCC(O)CNC(C)C)cc1` (stereo not shown) [metoprolol], the “Difference in mortality between drug-treated patients and placebo-treated patients” value (patients with CHF [1]) is listed as “no difference in mortality”.
